For nine compounds, Ki and IC50 results are on record in BindingDB's records for doi:10.1111/cbdd.12796 (Fudan University, 2016).

Where “and” joins values, the source holds several entries; their conditions need not be identical. Equal entries are not always repeated.

In one experiment the target is T1, D(1A) dopamine receptor (Homo sapiens, UniProt P21728). As to the kind of experiment: Competitive Binding Assays.
T1 sequence (P21728 whole entry): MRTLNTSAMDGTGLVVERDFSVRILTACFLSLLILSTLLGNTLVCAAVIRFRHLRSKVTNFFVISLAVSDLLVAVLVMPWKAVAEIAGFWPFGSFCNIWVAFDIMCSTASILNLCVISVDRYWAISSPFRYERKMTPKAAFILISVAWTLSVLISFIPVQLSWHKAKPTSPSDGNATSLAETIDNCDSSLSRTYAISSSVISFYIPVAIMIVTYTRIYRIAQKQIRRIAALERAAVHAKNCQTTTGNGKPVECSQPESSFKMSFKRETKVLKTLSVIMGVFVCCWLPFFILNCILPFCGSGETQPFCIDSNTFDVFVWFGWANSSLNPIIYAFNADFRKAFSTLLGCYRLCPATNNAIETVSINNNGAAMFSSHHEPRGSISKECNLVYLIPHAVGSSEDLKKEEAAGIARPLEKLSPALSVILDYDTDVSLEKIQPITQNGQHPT
Conditions: not given
The Ki is a measure of affinity in units of concentration, obtained from inhibition or displacement. Higher therefore signals lower affinity. Take `COc1cc2c(cc1OC)C1Cc3ccc(OC)c(OC)c3CCN1CC2` (stereo not drawn) [2,3,10,11-tetramethoxy-5,6,8,9,14,14a-hexahydrobenzo[4,5]azepino[2,1-a]isoquinoline (15c)]: the affinity corresponds to a Ki of 57.3 nM.
The same measure, in the same setting: as for `COc1cc2c(cc1OC)CC1c3cc(OC)c(OC)cc3CCN1CC2` (stereo not drawn) [2,3,11,12-tetramethoxy-5,6,8,9,14,14a-hexahydrobenzo[4,5]azepino[2,1-a]isoquinoline (15a)], the figure is 33.9 nM; as for `COc1ccc2c(c1OC)CCN1CCc3cc(O)c(O)cc3C1C2` (stereo not drawn) [Hexahydrobenzo[4,5]azepino[2,1-a]isoquinoline, 17], 220 nM.
The same measure, in the same setting: as for `COc1cc2c(cc1O)C1Cc3ccc(OC)c(OC)c3CCN1CC2` (stereo not drawn) [3,10,11-trimethoxy-5,6,8,9,14,14a-hexahydrobenzo[4,5]azepino[2,1-a]isoquinolin-2-ol (15d)], the figure is 30.3 nM; as for `COc1ccc2c(c1OC)CCN1CCc3cc4c(cc3C1C2)OCO4` (stereo not drawn) [Hexahydrobenzo[4,5]azepino[2,1-a]isoquinoline, 16], 60.3 nM.
Same read-out and setting: as for `COc1cc2c(cc1O)C1Cc3cc(OC)c(OC)cc3CCN1CC2` (stereo not drawn) [3,11,12-trimethoxy-5,6,8,9,14,14a-hexahydrobenzo[4,5]azepino[2,1-a]isoquinolin-2-ol (15b)], the figure is 69.1 nM; as for `Oc1cc2c(cc1O)C1Cc3ccc(O)c(O)c3CCN1CC2` (stereo not drawn) [5,6,8,9,14,14a-hexahydrobenzo[4,5]azepino[2,1-a]isoquinoline-2,3,10,11-tetraol (18)], 33.7 nM.
`COc1cc2c(cc1OC(C)=O)C1Cc3ccc(OC)c(OC)c3CCN1CC2` (stereo not drawn) [3,10,11-trimethoxy-5,6,8,9,14,14a-hexahydrobenzo[4,5]azepino[2,1-a]isoquinolin-2-ylacetate (19)] registered an inhibition constant (Ki) of 474 nM.

The target in the next experiment is D(2) dopamine receptor (Homo sapiens, UniProt P14416). As to the kind of experiment: Competitive Binding Assays.
Sequence of D(2) dopamine receptor (P14416 whole entry): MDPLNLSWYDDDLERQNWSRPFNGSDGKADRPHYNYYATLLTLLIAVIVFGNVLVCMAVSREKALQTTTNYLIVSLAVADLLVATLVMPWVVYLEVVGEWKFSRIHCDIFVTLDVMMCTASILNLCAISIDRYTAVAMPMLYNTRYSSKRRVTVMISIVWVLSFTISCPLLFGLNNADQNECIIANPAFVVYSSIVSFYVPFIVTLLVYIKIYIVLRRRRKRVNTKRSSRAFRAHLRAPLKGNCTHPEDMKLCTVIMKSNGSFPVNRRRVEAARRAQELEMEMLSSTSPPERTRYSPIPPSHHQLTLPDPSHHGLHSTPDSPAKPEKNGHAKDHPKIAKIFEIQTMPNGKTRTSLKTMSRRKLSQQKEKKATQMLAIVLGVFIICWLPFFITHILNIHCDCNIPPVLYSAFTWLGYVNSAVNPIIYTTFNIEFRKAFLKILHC
Conditions: not given
As for `COc1cc2c(cc1OC)C1Cc3ccc(OC)c(OC)c3CCN1CC2` (stereo not drawn) [2,3,10,11-tetramethoxy-5,6,8,9,14,14a-hexahydrobenzo[4,5]azepino[2,1-a]isoquinoline (15c)], the Ki is 29.8 nM. That is a double-digit nanomolar value.
For `COc1cc2c(cc1OC)CC1c3cc(OC)c(OC)cc3CCN1CC2` (stereo not drawn) [2,3,11,12-tetramethoxy-5,6,8,9,14,14a-hexahydrobenzo[4,5]azepino[2,1-a]isoquinoline (15a)], the inhibitory constant (Ki) was 26.5 nM.
Still for that read-out and setting: as for `COc1ccc2c(c1OC)CCN1CCc3cc(O)c(O)cc3C1C2` (stereo not drawn) [Hexahydrobenzo[4,5]azepino[2,1-a]isoquinoline, 17], the figure is 39.2 nM.
Still for that read-out and setting: as for `COc1cc2c(cc1O)C1Cc3ccc(OC)c(OC)c3CCN1CC2` (stereo not drawn) [3,10,11-trimethoxy-5,6,8,9,14,14a-hexahydrobenzo[4,5]azepino[2,1-a]isoquinolin-2-ol (15d)], the figure is 84 nM.
`COc1ccc2c(c1OC)CCN1CCc3cc4c(cc3C1C2)OCO4` (stereo not drawn) [Hexahydrobenzo[4,5]azepino[2,1-a]isoquinoline, 16] displayed a Ki of 4.26 nM.
Turning to `COc1cc2c(cc1O)C1Cc3cc(OC)c(OC)cc3CCN1CC2` (stereo not drawn) [3,11,12-trimethoxy-5,6,8,9,14,14a-hexahydrobenzo[4,5]azepino[2,1-a]isoquinolin-2-ol (15b)], affinity was put at a Ki of 6.96 nM.
Still for that read-out and setting: as for `Oc1cc2c(cc1O)C1Cc3ccc(O)c(O)c3CCN1CC2` (stereo not drawn) [5,6,8,9,14,14a-hexahydrobenzo[4,5]azepino[2,1-a]isoquinoline-2,3,10,11-tetraol (18)], the figure is 72.2 nM; as for `COc1cc2c(cc1O)C1Cc3ccc(OC)c(O)c3CCN1CC2` (stereo not drawn) [3,11-dimethoxy-5,6,8,9,14,14a-hexahydrobenzo[4,5]azepino[2,1-a]isoquinoline-2,10-diol ((+)-15e)], 36.6 nM and 34.4 nM and 58.3 nM.
Same read-out and setting: as for `COc1cc2c(cc1OC(C)=O)C1Cc3ccc(OC)c(OC)c3CCN1CC2` (stereo not drawn) [3,10,11-trimethoxy-5,6,8,9,14,14a-hexahydrobenzo[4,5]azepino[2,1-a]isoquinolin-2-ylacetate (19)], the figure is 52 nM.

For the next experiment, the target named is D(3) dopamine receptor (Homo sapiens, UniProt P35462). As to the kind of experiment: Competitive Binding Assays.
Sequence of D(3) dopamine receptor (P35462 as listed by the source): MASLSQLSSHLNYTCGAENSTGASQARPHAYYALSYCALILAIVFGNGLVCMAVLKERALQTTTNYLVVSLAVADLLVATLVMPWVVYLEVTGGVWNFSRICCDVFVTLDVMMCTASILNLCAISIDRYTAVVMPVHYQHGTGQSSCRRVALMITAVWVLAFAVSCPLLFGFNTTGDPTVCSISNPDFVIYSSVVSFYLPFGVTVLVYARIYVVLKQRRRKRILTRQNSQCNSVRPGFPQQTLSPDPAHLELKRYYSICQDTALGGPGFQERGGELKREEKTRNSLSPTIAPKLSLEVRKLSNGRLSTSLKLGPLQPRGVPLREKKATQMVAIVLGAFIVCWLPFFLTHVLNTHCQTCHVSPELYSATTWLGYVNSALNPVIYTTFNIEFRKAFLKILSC
Conditions: not given
`COc1cc2c(cc1OC)C1Cc3ccc(OC)c(OC)c3CCN1CC2` (stereo not drawn) [2,3,10,11-tetramethoxy-5,6,8,9,14,14a-hexahydrobenzo[4,5]azepino[2,1-a]isoquinoline (15c)] returned a Ki of 22 nM.
On the same count and under the same terms, as for `COc1cc2c(cc1OC)CC1c3cc(OC)c(OC)cc3CCN1CC2` (stereo not drawn) [2,3,11,12-tetramethoxy-5,6,8,9,14,14a-hexahydrobenzo[4,5]azepino[2,1-a]isoquinoline (15a)], the figure is 13.3 nM; as for `COc1ccc2c(c1OC)CCN1CCc3cc(O)c(O)cc3C1C2` (stereo not drawn) [Hexahydrobenzo[4,5]azepino[2,1-a]isoquinoline, 17], 61.2 nM.
`COc1cc2c(cc1O)C1Cc3ccc(OC)c(OC)c3CCN1CC2` (stereo not drawn) [3,10,11-trimethoxy-5,6,8,9,14,14a-hexahydrobenzo[4,5]azepino[2,1-a]isoquinolin-2-ol (15d)] returned a Ki of 284 nM. Compared with the last compound, the Ki is about 4.6-fold higher.
The same measure, in the same setting: as for `COc1ccc2c(c1OC)CCN1CCc3cc4c(cc3C1C2)OCO4` (stereo not drawn) [Hexahydrobenzo[4,5]azepino[2,1-a]isoquinoline, 16], the figure is 27.3 nM.
On the same count and under the same terms, as for `COc1cc2c(cc1O)C1Cc3cc(OC)c(OC)cc3CCN1CC2` (stereo not drawn) [3,11,12-trimethoxy-5,6,8,9,14,14a-hexahydrobenzo[4,5]azepino[2,1-a]isoquinolin-2-ol (15b)], the figure is 39.2 nM; as for `Oc1cc2c(cc1O)C1Cc3ccc(O)c(O)c3CCN1CC2` (stereo not drawn) [5,6,8,9,14,14a-hexahydrobenzo[4,5]azepino[2,1-a]isoquinoline-2,3,10,11-tetraol (18)], 471 nM; as for `COc1cc2c(cc1OC(C)=O)C1Cc3ccc(OC)c(OC)c3CCN1CC2` (stereo not drawn) [3,10,11-trimethoxy-5,6,8,9,14,14a-hexahydrobenzo[4,5]azepino[2,1-a]isoquinolin-2-ylacetate (19)], 73.7 nM.

A further experiment addresses T1, D(1A) dopamine receptor. As to the kind of experiment: D1R Functional Assay. The settings on record: pH 7.5.
The term IC50 denotes the concentration at which inhibition is half-maximal. With `COc1cc2c(cc1O)C1Cc3ccc(OC)c(OC)c3CCN1CC2` (stereo not drawn) [3,10,11-trimethoxy-5,6,8,9,14,14a-hexahydrobenzo[4,5]azepino[2,1-a]isoquinolin-2-ol (15d)], the IC50 turned out to be 33500 nM.
On the same count and under the same terms, as for `Oc1cc2c(cc1O)C1Cc3ccc(O)c(O)c3CCN1CC2` (stereo not drawn) [5,6,8,9,14,14a-hexahydrobenzo[4,5]azepino[2,1-a]isoquinoline-2,3,10,11-tetraol (18)], the figure is 115000 nM; as for `COc1cc2c(cc1O)C1Cc3ccc(OC)c(O)c3CCN1CC2` (stereo not drawn) [3,11-dimethoxy-5,6,8,9,14,14a-hexahydrobenzo[4,5]azepino[2,1-a]isoquinoline-2,10-diol ((+)-15e)], 140 nM.
